Test results taken from the supplement of paper PMC12317010.
Structures can show the parent of a compound that is named as a salt.

Experiment: collision cross section in nitrogen (drift tube, single-field); higher = larger gas-phase ion size
[1] = ion type: [M+H], ion source: ESI, ion mode: Positive
[2] = ion type: [M+Na], ion source: ESI, ion mode: Positive
[3] = ion type: [M+H], ion source: APCI, ion mode: Positive
[4] = ion type: [M-H], ion source: ESI, ion mode: Negative
[5] = ion type: [M+], ion source: APCI, ion mode: Positive
[6] = ion source: ESI, ion mode: Positive, ion type: [M]+ (permanent cation)
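Further: chemical standards at 10 µM analysed by drift tube IMS-QTOF MS in about 3.95 torr nitrogen, mean of duplicate injections differing ≤1%, mass error below 10 ppm.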

Compound | collision cross section in nitrogen [1] | collision cross section in nitrogen [2] | collision cross section in nitrogen [3] | collision cross section in nitrogen [4] | other results
CC(C)(c1ccccc1)c1cc(-n2nc3ccccc3n2)c(O)c(C(C)(C)c2ccccc2)c1 | 218 Å² | 223.4 Å² | 218 Å² | 222.1 Å² | 
O=[N+]([O-])c1ccccc1O [2-Nitrophenol] |  |  |  | 121.2 Å² | 
Cc1ccc2c(c1N)C(=O)c1ccccc1C2=O [1-Amino-2-methylanthraquinone] | 153.2 Å² |  | 153.6 Å² | 150.1 Å² | collision cross section in nitrogen [5]: 147.6 Å²
Oc1c(O)c(Cl)c(Cl)c(Cl)c1Cl [Tetrachlorocatechol] |  |  |  | 135.1 Å² | 
CCC(CO)(CO)COCC(CC)(CO)CO [2,2'-(Oxydimethanediyl)bis(2-ethylpropane-1,3-diol)] |  | 159.6 Å² |  | 158.6 Å² | 
CCCCCCCCCCCCCCCCOS(=O)(=O)O [Sodium hexyldecyl sulfate] |  |  |  | 181.3 Å² | 
CCCCOC(=O)COC(=O)c1ccccc1C(=O)OCCCC |  | 193.5 Å² |  |  | 
CC(C)=CC1C(C(=O)OCc2coc(Cc3ccccc3)c2)C1(C)C (configuration not stated) [Resmethrin] |  | 177.8 Å² |  |  | 
CC1CN(c2ccccc2)NC1=O (configuration not stated) [4-Methyl-1-phenylpyrazolidin-3-one] |  |  |  |  | collision cross section in nitrogen [5]: 138 Å²
CCC1(c2ccc(N)cc2)CCC(=O)NC1=O (configuration not stated) [Aminoglutethimide] |  |  |  | 158.8 Å² | 
CC(C)N(Cc1ccccc1)C(=O)C(C)(C)C [Butam] | 154.5 Å² | 163.4 Å² | 154.6 Å² |  | 
CCC(=O)/C=C/C1C(C)=CCCC1(C)C (configuration not stated) [Methylionone] |  |  |  | 155.8 Å² | 
N#CCCOCCOCCC#N [3,3'-(Ethylenedioxy)dipropiononitrile] |  | 143 Å² |  |  | 
FC(F)C(F)(F)OCC(Cn1cncn1)c1ccc(Cl)cc1Cl (configuration not stated) [Tetraconazole] | 176.6 Å² |  | 177.6 Å² |  | 
CCCCCCCCSCc1cc(C)c(O)c(CSCCCCCCCC)c1 [2-Methyl-4,6-bis[(octylthio)methyl]phenol] |  |  |  | 208 Å² | 
Cc1cc(Cc2cc(C)cc(C(C)(C)C)c2O)c(O)c(C(C)(C)C)c1 [2,2'-Methylenebis(4-methyl-6-tert-butylphenol)] |  |  |  | 195.4 Å² | 
Oc1ccc(Cl)cc1Cl [2,4-Dichlorophenol] |  |  |  | 123.6 Å² | 
CC(Cc1ccc(C(C)(C)C)cc1)CN1C[C@@H](C)O[C@@H](C)C1 (stereo partly drawn) [(2R,6S)-Fenpropimorph] | 173.5 Å² |  | 173.1 Å² |  | 
OCC(CO)(CO)COCC(CO)(CO)CO [Dipentaerythritol] | 154.2 Å² | 157.9 Å² |  | 154.6 Å² | 
CCCOC/C(=N\c1ccc(Cl)cc1C(F)(F)F)n1ccnc1 [Triflumizole] | 180 Å² |  | 179.8 Å² | 170.3 Å² | 
C[C@]12C=CC3=C4CCC(=O)C=C4CC[C@H]3[C@@H]1CC[C@@H]2O [17beta-Trenbolone] | 166.4 Å² | 192.3 Å² | 166.2 Å² | 168.7 Å² | 
COc1cc2c(cc1OC)[C@@]13CCN4CC5=CCO[C@H]6CC(=O)N2[C@H]1[C@H]6[C@H]5C[C@H]43 [Brucine] | 194.1 Å² | 204.6 Å² | 191.3 Å² |  | 
C[N+](C)(C)CCO [Choline hydroxide] |  |  |  |  | collision cross section in nitrogen [6]: 117.7 Å²
CNC(=O)ON=C(C)C(C)S(C)(=O)=O (configuration not stated) [Butoxycarboxim] |  | 149.8 Å² |  |  | 
CCCCCOC(=O)c1ccccc1C(=O)OCCCCC [Dipentyl phthalate] |  | 193.4 Å² |  |  | 
Cc1ccccc1OP(=O)(Oc1ccccc1C)Oc1ccccc1C [Tri-o-cresyl phosphate] | 182.3 Å² | 192.7 Å² | 182.7 Å² |  | 
CCCCCCCC[N+](C)(CCCCCCCC)CCCCCCCC [Methyltrioctylammonium chloride] |  |  |  |  | collision cross section in nitrogen (ion source: APCI, ion mode: Positive, ion type: [M]+ (permanent cation)): 222.2 Å²; collision cross section in nitrogen [6]: 221.8 Å²

Now from value to compound, other results behind:

collision cross section in nitrogen [1] | collision cross section in nitrogen [2] | collision cross section in nitrogen [3] | collision cross section in nitrogen [4] | Compound | other results
184.4 Å² | 185.6 Å² |  |  | COC(=O)C(C)Oc1ccc(Oc2ncc(C(F)(F)F)cc2Cl)cc1 (configuration not stated) [Haloxyfop-methyl] | 
205.4 Å² |  | 206 Å² | 213.8 Å² | CCc1nn(C2CCCCC2)c2cc([C@]3(C#N)CC[C@@H](C(=O)O)CC3)ccc12 | 
 | 148.5 Å² |  | 141.1 Å² | COC(=O)c1sccc1S(N)(=O)=O [Methyl 3-sulfamoylthiophene-2-carboxylate] | 
189.1 Å² | 200.2 Å² | 189.6 Å² | 190.8 Å² | Cc1ccccc1N=Nc1ccc(NC(=O)c2ccnn2C)c(C)c1 | 
 |  |  | 130.9 Å² | Cc1ccc(C)c(O)c1C [2,3,6-Trimethylphenol] | 
131.4 Å² |  |  |  | Nc1ccc(N)c(Cl)c1 [2-Chloro-1,4-diaminobenzene sulfate (1:1)] | 
 |  |  | 132.9 Å² | CC(C)c1cccc(O)c1 [3-Isopropylphenol] | 
258.2 Å² | 259.5 Å² | 258.5 Å² | 258.7 Å² | COc1cc(-c2nc(NC(=O)c3cc4cc(C)cc(C)c4n3CC(=O)O)sc2CCC2CCCCC2)c(OC)cc1Cl | 
218.9 Å² | 219.1 Å² | 219.5 Å² | 220.2 Å² | CN1C(=O)N(c2ccccc2Br)Cc2cnc(Nc3ccc4c(c3)OCC(CO)O4)nc21 (configuration not stated) | collision cross section in nitrogen [5]: 215.4 Å²
 |  |  | 123.6 Å² | Cc1c(O)cccc1O [2-Methyl-1,3-benzenediol] | 
 |  |  | 159.3 Å² | Oc1ccc(/C=C/c2cc(O)cc(O)c2)cc1 [Resveratrol] | collision cross section in nitrogen [5]: 155.1 Å²
 |  |  | 162 Å² | O=C1c2ccccc2C(=O)c2cc(S(=O)(=O)O)ccc21 [Sodium 2-anthraquinonesulfonate] | 
 |  |  | 217 Å² | Cc1c(C2(c3cc(Br)c(O)c(Br)c3C)OS(=O)(=O)c3ccccc32)cc(Br)c(O)c1Br [Bromcresol green] | 
 |  |  | 146.7 Å² | CC(C)c1ccc(O)c(C(C)C)c1 [2,4-Diisopropylphenol] | 
 |  |  | 154.7 Å² | O=C(Oc1ccc(O)cc1)c1ccccc1 [4-Hydroxyphenyl benzoate] | 
 | 189.7 Å² |  |  | O=C(OCCOCCOCCOC(=O)c1ccccc1)c1ccccc1 [Ethylenebis(oxyethylene) dibenzoate] | 
182.1 Å² | 184.1 Å² | 182 Å² |  | CC1(C)S[C@@H]2[C@H](NC(=O)COc3ccccc3)C(=O)N2[C@H]1C(=O)O [Penicillin VK] | 

collision cross section in nitrogen [1] | collision cross section in nitrogen [2] | collision cross section in nitrogen [3] | collision cross section in nitrogen [4] | Compound | other results
157.8 Å² | 160.3 Å² |  |  | CN(C)CCN(Cc1cccs1)c1ccccn1 [Methapyrilene fumarate] | 
 |  |  | 152.8 Å² | O=C(c1ccc(O)cc1)c1ccc(O)cc1O [2,4,4'-Trihydroxybenzophenone] | 
125.4 Å² |  | 126.3 Å² |  | Cc1ccnc2ccccc12 [Lepidine] | collision cross section in nitrogen [5]: 125.4 Å²
238 Å² | 242.7 Å² | 239.1 Å² |  | O=C(CCCCCCCCc1cccnc1)N1CCC(C=C(c2ccccc2)c2ccccc2)CC1 [Ro 23-7637] | 
217 Å² | 221.7 Å² |  | 207.8 Å² | C[C@@H]1CCN(C(=O)[C@H](CCCNC(=N)N)NS(=O)(=O)c2cccc3c2NC[C@H](C)C3)[C@@H](C(=O)O)C1 [Argatroban monohydrate] | 
 |  |  | 144.9 Å² | CC(=O)Nc1ccc(C(=O)CCl)cc1 [4'-(Chloroacetyl)acetanilide] | 
211.4 Å² |  | 211.7 Å² | 217.9 Å² | O=C1OC2(c3ccccc31)c1cc(I)c(O)c(I)c1Oc1c2cc(I)c(O)c1I [FD&C Red 3] | 
206.6 Å² | 217.6 Å² |  | 213.2 Å² | COc1ccc(Cl)cc1C(=O)NCCc1ccc(S(=O)(=O)NC(=O)NC2CCCCC2)cc1 [Glybenclamide] | 
181.2 Å² | 191.6 Å² |  |  | COc1ccc2c(c1)c(CC(=O)O)c(C)n2C(=O)c1ccc(Cl)cc1 [Indomethacin] | 
 | 203.9 Å² |  |  | CC[C@H](C)C(=O)O[C@H]1C[C@@H](C)C=C2C=C[C@H](C)[C@H](CC[C@@H]3C[C@@H](O)CC(=O)O3)[C@H]21 [Lovastatin] | 
148.3 Å² | 162.8 Å² | 148.7 Å² | 154.5 Å² | c1ccc(CNc2[nH]cnc3ncnc2-3)cc1 [N-Benzyl-1H-purin-6-amine] | 
 |  | 120.8 Å² |  | c1ccc2c(c1)CCN2 [Indoline] | 
 |  |  | 199.2 Å² | CC1=NN(c2ccc(S(=O)(=O)O)cc2)C(=O)C1N=Nc1ccccc1 (configuration not stated) [C.I. Acid Yellow 11, sodium salt] | 
 |  |  | 199.5 Å² | Nc1nc(N)c2nc(CNc3ccc(C(=O)N[C@@H](CCC(=O)O)C(=O)O)cc3)cnc2n1 [Aminopterin] | 
 | 194.3 Å² |  | 176.2 Å² | CCCCCCC(C)OC(=O)COc1nc(F)c(Cl)c(N)c1Cl (configuration not stated) [Fluroxypyr-meptyl] | 
192.4 Å² |  | 192.1 Å² |  | NCc1cccc(C2CCN(C(=O)c3ccc(C#Cc4ccccc4F)o3)CC2)c1 [AVE5638] | 
